Laboratory results from US9381173B2, “Isolated stereoisomeric forms of (S)2-N(3-O-(propan 2-Ol)-1-propyl-4-hydroxybenzene)-3-phenylpropylamide” (Novaremed Ltd., priority 2011, dated 2016).

Experiments:
[1] = tested on: tail flick model for nociceptive pain in mice; test: Tail flick test for nociceptive pain; type: in vivo; conditions: for Mean latency time Post-treatment: 30 minutes after administration; for Mean latency time Pre-treatment: baseline a day before
Procedure: In the present study the analgesic effect of the substantially pure enantiomers E1 and E2 was evaluated using the tail flick model for nociceptive pain in mice.
The experiment was performed using male ICR strain 7 weeks old mice (25-27 g) (supplied by Harlan Israel, Ltd.)
Response to pain was assessed using the tail flick method which utilizes an Ugo Basile tail flick instrument. The animal is placed and held gently on the Ugo Basile tail flick (TF) instrument surface with the tail straight back and above a photoelectric cell that served as heat source. The heat source and timer are turned on by a foot pedal press, and automatically switch off when the animal flicks its tail off the emitter. Latency is measured and analyzed as an analgesic effect.
Description of the Study: The baseline tail flick was measured a day before the experiment started. On the day of the experiment, animal body weights were first measured followed by the IP administration of the test items (vehicle, morphine, NRD 13 S E1 and E2). 30 minutes after administration of the test items, the animals were subjected to the tail-flick testing. The tail-flick experiments were followed by blood sampling of all groups. The experiment was terminated after spinal cords and brains of all groups have been collected.
Statistics and Data Evaluation: All parameters are represented as means and standard error of the mean (SEM). Data was analyzed using a two tailed, unpaired T-test to compare each treatment group to the Vehicle treated animals. A two-tailed, paired T-test was used to compare the pre-treatment and post-treatment of each treatment group. Probability values p<0.01 and p<0.05 are considered significant.

[2] = Body weight in the Chung model study; type: in vivo, rats; conditions: for Mean group body weight Day 14: before first administration; for Mean group body weight Day 7: before treatment; for Mean group body weight Baseline: study day -1, before surgery and treatment
Procedure: Body Weights: Body weight was measured at regular intervals on study days −1 for baseline values and seven days after the surgery (study day 7).

CC(O)COCC(Cc1ccc(O)cc1)NC(=O)CCc1ccccc1 (single isomer, unassigned) [E1]
increase of latency time between pretreatment and post treatment ([1]; 3 mg/kg IP): not statistically significant | reducing pain when compared to the Vehicle ([1]; 3 mg/kg IP): not significantly active in reducing pain | Mean latency time Post-treatment ([1]; 3 mg/kg IP (group 3)): 9.53 ± 0.85 s | Mean latency time Pre-treatment ([1]; 3 mg/kg IP (group 3)): 7.62 ± 0.74 s | Mean latency time Post-treatment ([1]; 10 mg/kg IP (groups 4, 6)): 10.63 ± 0.64 s | Mean latency time Pre-treatment ([1]; 10 mg/kg IP (groups 4, 6)): 8.16 ± 0.39 s | Mean latency time Post-treatment ([1]; 20 mg/kg IP (group 5)): 10.65 ± 0.81 s | Mean latency time Pre-treatment ([1]; 20 mg/kg IP (group 5)): 7.58 ± 0.41 s | conclusion: pain relief activity ([1]; dose of 3 mg/kg): significant pain relief activity only in the calculated difference | conclusion: reducing pain compared to the Vehicle treated group ([1]; doses of 10 mg/kg and 20 mg/kg): active in reducing pain | pain relief activity by difference between pre- and post-treatment latency times vs. Vehicle ([1]; in particular at doses of 10 and 20 mg/kg (p<0.01)): significant pain relief activity | pain analgesic in animal models of pain ([1]; summary statement, listed as (S,S) enantiomer): effective | Mean group body weight Day 14 ([2]; 7.5 mg/kg IP (group 5)): 287.60 ± 5.14 g | Mean group body weight Day 7 ([2]; 7.5 mg/kg IP (group 5)): 258.90 ± 4.41 g | Mean group body weight Baseline ([2]; 7.5 mg/kg IP (group 5)): 245.80 ± 2.54 g | Mean group body weight Day 21 ([2]; 7.5 mg/kg IP once daily from day 14 (group 5)): 303.80 ± 6.26 g | Mean group body weight Day 14 ([2]; 15 mg/kg IP (group 4)): 289.80 ± 3.27 g | Mean group body weight Day 7 ([2]; 15 mg/kg IP (group 4)): 259.20 ± 3.29 g | Mean group body weight Baseline ([2]; 15 mg/kg IP (group 4)): 245.00 ± 2.80 g | Mean group body weight Day 21 ([2]; 15 mg/kg IP once daily from day 14 (group 4)): 298.50 ± 3.27 g | Mean group body weight Day 14 ([2]; 30 mg/kg IP (group 3)): 288.70 ± 5.51 g | Mean group body weight Day 7 ([2]; 30 mg/kg IP (group 3)): 261.20 ± 4.45 g | Mean group body weight Baseline ([2]; 30 mg/kg IP (group 3)): 245.20 ± 3.19 g | Mean group body weight Day 21 ([2]; 30 mg/kg IP once daily from day 14 (group 3)): 303.30 ± 6.01 g
